# Data published in US20240327829A1, “CONJUGATE OF SAPONIN, OLIGONUCLEOTIDE AND GALNAC” (priority 2020, published 2024).
# Read-outs that look alike come from different tables or passages of the source. [BNA] = bridged nucleic acid (BNA) nucleotide, BNA type not stated for this oligo; [BNANC] = BNA^NC (2'-O,4'-aminoethylene bridged) nucleotide; {C6SH} = thiol C6 linker; d = 2'-deoxy (DNA)
# Experiments:
# [1] = tested on: apoB mRNA in primary human hepatocytes; assay: apoB mRNA expression analysis in primary human hepatocytes; type: cell-based; details: read-out: apoB RNA levels IC50
# Experimental: (§1) RNA from cells was isolated and analysed according to standard protocols (Biorad). qPCR primers that were used are indicated in Table A2.
# (§2) RNA isolation and gene expression analysis from primary mouse and human hepatocytes RNA from cells was isolated using TRI Reagent® Solution (Thermo Scientific) according to the manufacturer's instruction. Conversion into cDNA was performed using iScript™ cDNA Synthesis Kit (BioRad) using standard protocols. ApoB expression levels and levels of specific hepatocyte housekeeping genes were determined using quantitative real-time PCR assays (qRT-PCR) using iTaq™ Universal SYBR® Green Supermix (BioRad) and the Light Cycler 480 (Roche Diagnostics, Rotkreuz, Switzerland) with specific DNA primers, listed in Table A4 (study A) and Table A7 (study B), respectively. Analysis was done by the […] to determine apoB expression relative to 2 hepatocyte-specific housekeeping control mRNAs. Each analysis reaction was performed in triplicate.
# [2] = tested on: apoB protein; assay: Serum apoB protein analysis (ELISA); type: in vivo, C57BL/6J mice; details: Study B; 72 hrs; 2 mg/kg iv; vehicle 156 μg/ml
# Experimental: • i. Dose administration and in-life phase. Per group, 8 C57BL/6J male mice for treatment groups (in Study A, 14 mice in vehicle control group), approximately 6-7 weeks at arrival and 8-9 weeks at dosing, were dosed. The compounds, formulated in PBS or PBS alone (vehicle) according to Table A5 and Table A6, were dosed at 5 ml/kg in the tail vain (intravenously, iv), with dose volumes corresponding to the individual bodyweights. […] Animals were weighed weekly and clinical observations were performed 2-3 times daily within the first 48 hrs, and at least once daily thereafter until study end. • ii. Sampling of serum, liver, and kidney tissue. […] At the relevant inter-study post-dose timepoints, 3 animals per timepoint per treatment group (6 animals in the vehicle control group in Study A) were sacrificed to collect terminal bleeds and collect relevant organs, such as liver and kidney tissues for further analyses. at end of study, the remaining 2 animals (4 in the control group in Study A) per group were sacrificed. One half of the liver and one kidney was frozen and used for tissue RNA analysis.
# ApoB protein levels in mouse serum was determined using an ApoB ELISA (ab230932, Abcam, Cambridge, UK), according to the manufacturer's instruction.
# [3] = In vivo tolerability (clinical observations, body weight); parameters: species or system C57BL/6J mice; details: Study A; doses and regimens of Table A5
# Experimental: (§3) • i. Dose administration and in-life phase. Per group, 8 C57BL/6J male mice for treatment groups (in Study A, 14 mice in vehicle control group), approximately 6-7 weeks at arrival and 8-9 weeks at dosing, were dosed. The compounds, formulated in PBS or PBS alone (vehicle) according to Table A5 and Table A6, were dosed at 5 ml/kg in the tail vain (intravenously, iv), with dose volumes corresponding to the individual bodyweights. Where applicable, trivalent (GalNAc)3-SO1861 (EMCH) was co-administered at 5 ml/kg in the tail vain (iv) right after the trivalent GalNAc-ApoB conjugate. Animals were weighed weekly and clinical observations were performed 2-3 times daily within the first 48 hrs, and at least once daily thereafter until study end. • ii. Sampling of serum, liver, and kidney tissue. […] At the relevant inter-study post-dose timepoints, 3 animals per timepoint per treatment group (6 animals in the vehicle control group in Study A) were sacrificed to collect terminal bleeds and collect relevant organs, such as liver and kidney tissues for further analyses. at end of study, the remaining 2 animals (4 in the control group in Study A) per group were sacrificed. One half of the liver and one kidney was frozen and used for tissue RNA analysis.
# [4] = tested on: LDL-cholesterol; assay: Serum LDL-cholesterol (LDL-C) analysis; type: in vivo, C57BL/6J mice; details: for serum LDL-C reduction compared to vehicle: Study A
# Experimental: as §3
# LDL-cholesterol was measured in mouse serum, using an LDL-cholesterol specific two-step AU480 assay kit, respectively, from Beckman Coulter, with a photometric measurement according to the manufacturer's instructions.
# [5] = tested on: apoB RNA in liver tissue; assay: ApoB expression analysis in liver tissue (qRT-PCR); type: in vivo, C57BL/6J mice; details: for apoB RNA levels in liver, reduction compared to vehicle: Study A
# Experimental: as §3
# The mRNA was isolated from frozen liver tissue using TRzol® Reagent (Thermo Scientific) according to the manufacturer's instruction. Conversion into cDNA was performed using Script™ cDNA Synthesis Kit (BioRad). ApoB expression levels and levels of specific liver housekeeping genes were determined using quantitative real-time PCR assays (qRT-PCR) using iTaq™ Universal SYBRO Green Supermix (BioRad) and the Light Cycler 480 (Roche Diagnostics, Rotkreuz, Switzerland) with specific DNA primers, listed in Table A4 (Study A) and Table A7 (Study B), respectively. Analysis was done by the ΔCt method to determine apoB expression relative to 2 liver-specific housekeeping control mRNAs. Each analysis reaction was performed in triplicate.
# [6] = Endosomal escape enhancing activity of saponin; details: compared with SO1861
# [7] = tested on: primary human hepatocytes; assay: Cell viability of primary human hepatocytes; type: cell-based; details: combined with 10 pM CD71-saporin
# Experimental: Briefly, the MTS solution was diluted 20× in DMEM without phenol red (PAN-Biotech GmbH) supplemented with 10% FBS. The cells were washed once with 200 μL/PBS well, after which 100 μL diluted MTS solution was added/well. The plate was incubated for approximately 20-30 minutes at 37° C.
# [8] = tested on: apoB gene expression in Huh7 cells; assay: ApoB gene silencing (gene expression analysis); type: cell-based, human; details: for IC50: + fixed 4000 nM trivalent-GalNAc-L-SO1861 (DAR1)
# Experimental: as §1, §2
# [9] = tested on: apoB protein expression in Huh7 cells; assay: apoB protein expression in Huh7 hepatocyte cell line; type: cell-based, human
# [10] = tested on: HSP27 gene expression in Huh7 cells; assay: HSP27 gene silencing (gene expression analysis, qPCR); type: cell-based, human; details: + fixed 4000 nM SO1861-EMCH
# Source text: as §1
# [11] = tested on: HSP27 gene expression in HepG2 cells; assay: as above; type: cell-based, human; details: + fixed 4000 nM SO1861-EMCH
# Source text: as §1
# [12] = tested on: apoB gene expression in HepG2 cells; assay: ApoB gene silencing (gene expression analysis); type: cell-based, human
# Experimental: as §1, §2
# [13] = + 300 nM TrivalentGalNAc-SPT001
# [14] = + fixed 4000 nM trivalent-GalNAc-L-SO1861 (DAR1)
compound,measurement,setting,value
"ApoB #02 BNA: BNA^NC oligonucleotide 5′-GCattggtatTCA-3′ [SEQ ID NO: 12], fully phosphorothioated, murine and human sequence-compatible, apoB-targeting (GCATTGGTATTCA; sugars from the 5' end [BNANC]2 d8 [BNANC]3, all phosphorothioate, 5' {C6SH}, methylation of C not given here)",IC50,"[1]; relative ApoB #02 BNA concentration, no transfection agent",400 nM
same,IC50,[1]; transfection with RNAi-MAX,8 nM
same,serum apoB protein level,[2],57 µg/mL
same,tolerability,[3],well tolerated
same,serum LDL-C reduction compared to vehicle,"[4]; 24 hrs, 0.1 mg/kg iv",not noticeably reduced
same,serum LDL-C reduction compared to vehicle,"[4]; 24 hrs, 1 mg/kg iv",not noticeably reduced
same,serum LDL-C reduction compared to vehicle,"[4]; 24 hrs, 2 mg/kg iv",not noticeably reduced
same,serum LDL-C reduction compared to vehicle,"[4]; 72 hrs, 2 mg/kg iv",~50%
same,serum LDL-C reduction compared to vehicle,"[4]; 336 hrs, 2 mg/kg iv",~40%
same,serum LDL-C level,"[4]; Study B, 72 hrs, 2 mg/kg iv, vehicle 4 mg/dl",2 mg/dL
same,"apoB RNA levels in liver, reduction compared to vehicle","[5]; 24 hrs, 0.1 mg/kg iv",not noticeably reduced
same,"apoB RNA levels in liver, reduction compared to vehicle","[5]; 24 hrs, 1 mg/kg iv",~15%
same,"apoB RNA levels in liver, reduction compared to vehicle","[5]; 24 hrs, 2 mg/kg iv",~21%
same,"apoB RNA levels in liver, reduction compared to vehicle","[5]; 72 hrs, 2 mg/kg iv",39%
same,"apoB RNA levels in liver, reduction compared to vehicle","[5]; 336 hrs, 2 mg/kg iv",30%
same,"apoB RNA levels in liver, % of vehicle control","[5]; Study B, 72 hrs, 2 mg/kg iv",53%
CC(=O)OC1C(C)OC(OC2C(C)OC(OC(=O)[C@]34CCC(C)(C)CC3C3=CCC5[C@@]6(C)CC[C@H](OC7OC(C(=O)O)C(O)C(OC8OCC(O)C(O)C8O)C7OC7OC(CO)C(O)C(O)C7O)[C@@](C)(C=O)C6CC[C@@]5(C)[C@]3(C)C[C@H]4O)C(OC3OC(C)C(OC4OCC(O)C(OC5OCC(O)C(O)C5O)C4O)C(OC4OCC(O)C(O)C4O)C3O)C2O)C(O)C1O (some centres unmarked) [SO1832],endosomal escape enhancing activity towards an oligonucleotide (or protein toxin) in the endosome,[6],about equally active as SO1861
CC(=O)OC1C(C)OC(OC2C(C)OC(OC(=O)[C@]34CCC(C)(C)CC3C3=CCC5[C@@]6(C)CC[C@H](OC7OC(C(=O)O)C(O)C(OC8OCC(O)C(O)C8O)C7OC7OC(CO)C(O)C(O)C7O)[C@@](C)(/C=N/NC(=O)CCCCCN7C(=O)C=CC7=O)C6CC[C@@]5(C)[C@]3(C)C[C@H]4O)C(OC3OC(C)C(OC4OCC(O)C(OC5OC(CO)C(O)C(O)C5O)C4O)C(O)C3O)C2O)C(O)C1OC1OCC(O)C(O)C1O (some centres unmarked) [SO1861-EMCH],increase of potency (factor) when cell viability of liver cells is considered,[7],~10
"(GalNAc)3-ApoB: trivalent GalNAc conjugated with ApoB antisense BNA oligonucleotide (SEQ ID NO: 2); linker type not stated (GCCTCAGTCTGCTTCGCACC; sugars from the 5' end [BNA]5 d10 [BNA]5, backbone and methylation of C not given here; further chemistry not fully specified)",lowering of apoB mRNA expression,[8]; [13],"neither TrivalentGalNAc-ApoBBNA, nor the combination of TrivalentGalNAc-ApoBBNA and TrivalentGalNAc-SPT001 induce lowering"
same,lowering of apoB mRNA expression,[8]; alone,"neither TrivalentGalNAc-ApoBBNA, nor the combination of TrivalentGalNAc-ApoBBNA and TrivalentGalNAc-SPT001 induce lowering"
same,lowering of apoB protein expression,[9]; [13],"neitherTrivalentGalNAc-ApoBBNA, northe combination ofTrivalentGalNAc-ApoBBNA and TrivalentGalNAc-SPT001 induced marked lowering"
same,lowering of apoB protein expression,[9]; alone,"neitherTrivalentGalNAc-ApoBBNA, northe combination ofTrivalentGalNAc-ApoBBNA and TrivalentGalNAc-SPT001 induced marked lowering"
"trivalent-GalNAc-L-HSP27BNA: HSP27BNA (SEQ ID NO: 1) conjugated to trivalent-GalNAc, labile conjugation (GGCACAGCCAGTGGCG; sugars from the 5' end [BNANC]3 d10 [BNANC]3, backbone and methylation of C not given here; further chemistry not fully specified)",IC50,[10],3 nM
same,IC50,[11],0.1 nM
"trivalent-GalNAc-S-ApoBBNA: ApoBBNA (SEQ ID NO: 2) conjugated to trivalent-GalNAc, stable conjugation (GCCTCAGTCTGCTTCGCACC; sugars from the 5' end [BNA]5 d10 [BNA]5, backbone and methylation of C not given here; further chemistry not fully specified)",IC50,[8],700 nM
same,IC50,[12]; + fixed 4000 nM SO1861-EMCH,10 nM
same,IC50,[12]; [14],50 nM
"trivalent-GalNAc-S-HSP27BNA: HSP27BNA (SEQ ID NO: 1) conjugated to trivalent-GalNAc, stable conjugation (GGCACAGCCAGTGGCG; sugars from the 5' end [BNANC]3 d10 [BNANC]3, backbone and methylation of C not given here; further chemistry not fully specified)",IC50,[10],3 nM
same,IC50,[11],0.1 nM
"trivalent-GalNAc-L-ApoBBNA: ApoBBNA (SEQ ID NO: 2) conjugated to trivalent-GalNAc, labile conjugation (GCCTCAGTCTGCTTCGCACC; sugars from the 5' end [BNA]5 d10 [BNA]5, backbone and methylation of C not given here; further chemistry not fully specified)",IC50,[8],700 nM
same,IC50,[12]; + fixed 4000 nM SO1861-EMCH,10 nM
same,IC50,[12]; [14],50 nM
